Laboratory results published in patent publication US8299077B2 (Roche Palo Alto LLC, priority 2009, dated 2012).

Tested on: B cell receptor-mediated activation of B cells in human blood (CD69 expression)
Assay: Inhibition of B cell activation in whole blood measured by CD69 expression
Format: cell-based
Conditions: anti-IgM stimulation, 20 h, 50% decrease of CD69-positive cells that are also CD20-positive
In short: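 Healthy-donor human whole blood (heparin) preincubated with compound (nine-point, three-fold dilutions) for 30 min at 37 °C, then stimulated with goat F(ab′)2 anti-human IgM (50 μg/ml final) for 20 h. CD69-positive B cells (CD20 gating) measured by flow cytometry as percent positive; IC50 from dose-response fit.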

Compound	IC50
Cn1cc(-c2cccc(-n3ncc4cc(C(C)(C)C)cc(F)c4c3=O)c2CO)cc(Nc2ccc(N3CCC(C)(O)CC3)cn2)c1=O [Example I-17, 6-tert-Butyl-8-fluoro-2-{2-hydroxymethyl-3-[5-(4-hydroxy-4-methyl-3,4,5,6-tetrahydro-2H-[1,3′]bipyridinyl-6′-ylamino)-1-methyl-6-oxo-1,6-dihydro-pyridin-3-yl]-phenyl}-2H-phthalazin-1-one]	10 nM
Cn1cc(-c2cccc(-n3ncc4cc(C(C)(C)C)cc(F)c4c3=O)c2CO)cc(Nc2ccc(C3CCNCC3)cn2)c1=O [Example I-16, 6-tert-Butyl-8-fluoro-2-{3-[5-(1′,2′,3′,4′,5′,6′-hexahydro-[3,4′]bipyridinyl-6-ylamino)-1-methyl-6-oxo-1,6-dihydro-pyridin-3-yl]-2-hydroxymethyl-phenyl}-2H-phthalazin-1-one]	48 nM
Cn1cc(-c2cccc(-n3ccc4cc(C(C)(C)C)cc(F)c4c3=O)c2CO)cc(Nc2ccc(C(=O)N3CCOCC3)cn2)c1=O [Example I-63, 6-tert-Butyl-8-fluoro-2-(2-hydroxymethyl-3-{1-methyl-5-[5-(morpholine-4-carbonyl)-pyridin-2-ylamino]-6-oxo-1,6-dihydro-pyridin-3-yl}-phenyl)-2H-isoquinolin-1-one]	16 nM
Cn1cc(-c2cccc(-n3ncc4cc(C(C)(C)C)cc(F)c4c3=O)c2CO)cc(Nc2ccc(C(C)(C)C(=O)O)cn2)c1=O [Example I-20, 2-(6-{5-[3-(6-tert-Butyl-8-fluoro-1-oxo-1H-phthalazin-2-yl)-2-hydroxymethyl-phenyl]-1-methyl-2-oxo-1,2-dihydro-pyridin-3-ylamino}-pyridin-3-yl)-2-methyl-propionic acid]	41 nM
CN1CC(Oc2ccc(Nc3cc(-c4cccc(-n5ccc6cc(C7CC7)cc(F)c6c5=O)c4CO)cn(C)c3=O)nc2)C1 [Example I-71, 6-Cyclopropyl-8-fluoro-2-(2-hydroxymethyl-3-{1-methyl-5-[5-(1-methyl-azetidin-3-yloxy)-pyridin-2-ylamino]-6-oxo-1,6-dihydro-pyridin-3-yl}-phenyl)-2H-isoquinolin-1-one]	39 nM
Cn1cc(-c2cccc(-n3ncc4cc(C(C)(C)C)cc(F)c4c3=O)c2CO)cc(Nc2ccc(C(=O)N3CCOCC3)cn2)c1=O [Example I-9, 6-tert-Butyl-8-fluoro-2-(2-hydroxymethyl-3-{1-methyl-5-[5-(morpholine-4-carbonyl)-pyridin-2-ylamino]-6-oxo-1,6-dihydro-pyridin-3-yl}-phenyl)-2H-phthalazin-1-one]	1 nM
CCNC(=O)Nc1cc(-c2cccc(N3CCc4cc(C(C)(C)C#N)cc(F)c4C3=O)c2CO)cn(C)c1=O [Example I-5, 1-(5-{3-[6-(Cyano-dimethyl-methyl)-8-fluoro-1-oxo-3,4-dihydro-1H-isoquinolin-2-yl]-2-hydroxymethyl-phenyl}-1-methyl-2-oxo-1,2-dihydro-pyridin-3-yl)-3-ethyl-urea]	1080 nM
Cn1cc(-c2cccc(-n3ncc4cc(C(C)(C)C)cc(F)c4c3=O)c2CO)cc(Nc2ccc(C(C)(C)C(=O)N3CCOCC3)cn2)c1=O [Example I-21, 6-tert-Butyl-2-(3-{5-[5-(1,1-dimethyl-2-morpholin-4-yl-2-oxo-ethyl)-pyridin-2-ylamino]-1-methyl-6-oxo-1,6-dihydro-pyridin-3-yl}-2-hydroxymethyl-phenyl)-8-fluoro-2H-phthalazin-1-one]	11 nM
CNCCOc1ccc(Nc2cc(-c3cccc(-n4ncc5cc(C(C)(C)C)cc(F)c5c4=O)c3CO)cn(C)c2=O)nc1 [Example I-88, 6-tert-Butyl-8-fluoro-2-(2-hydroxymethyl-3-{1-methyl-5-[5-(2-methylamino-ethoxy)-pyridin-2-ylamino]-6-oxo-1,6-dihydro-pyridin-3-yl}-phenyl)-2H-phthalazin-1-one]	9 nM
Cn1cc(-c2cccc(-n3ccc4cc(C5(C)CC5)cc(F)c4c3=O)c2CO)cc(Nc2ccc(S(C)(=O)=O)cn2)c1=O [Example I-61, 8-Fluoro-2-{2-hydroxymethyl-3-[5-(5-methanesulfonyl-pyridin-2-ylamino)-1-methyl-6-oxo-1,6-dihydro-pyridin-3-yl]-phenyl}-6-(1-methyl-cyclopropyl)-2H-isoquinolin-1-one]	51 nM
Cn1cc(-c2cccc(-n3ncc4cc(C(C)(C)C)cc(F)c4c3=O)c2CO)cc(Nc2ccc(N3CCNCC3)cn2)c1=O [Example I-14, 6-tert-Butyl-8-fluoro-2-{2-hydroxymethyl-3-[1-methyl-6-oxo-5-(5-piperazin-1-yl-pyridin-2-ylamino)-1,6-dihydro-pyridin-3-yl]-phenyl}-2H-phthalazin-1-one]	30 nM
Cn1cc(-c2cccc(-n3ccc4cc(C5CC5)cc(F)c4c3=O)c2CO)cc(Nc2ccc(C(C)(C)O)cn2)c1=O [Example I-72, 6-Cyclopropyl-8-fluoro-2-(2-hydroxymethyl-3-{5-[5-(1-hydroxy-1-methyl-ethyl)-pyridin-2-ylamino]-1-methyl-6-oxo-1,6-dihydro-pyridin-3-yl}-phenyl)-2H-isoquinolin-1-one]	20 nM
CC1CCOC(Nc2cc(-c3cccc(-n4ncc5cc(C(C)(C)C)cc(F)c5c4=O)c3CO)cn(C)c2=O)=N1 (centres unmarked) [Example I-46, 6-tert-Butyl-8-fluoro-2-{2-hydroxymethyl-3-[1-methyl-5-(4-methyl-5,6-dihydro-4H-[1,3]oxazin-2-ylamino)-6-oxo-1,6-dihydro-pyridin-3-yl]-phenyl}-2H-phthalazin-1-one]	4220 nM
Cn1cc(-c2cccc(-n3ccc4cc(C(C)(C)O)cc(F)c4c3=O)c2CO)cc(Nc2ccc(N3CCC(C)(O)CC3)cn2)c1=O [Example I-58, 8-Fluoro-6-(1-hydroxy-1-methyl-ethyl)-2-{2-hydroxymethyl-3-[5-(4-hydroxy-4-methyl-3,4,5,6-tetrahydro-2H-[1,3′]bipyridinyl-6′-ylamino)-1-methyl-6-oxo-1,6-dihydro-pyridin-3-yl]-phenyl}-2H-isoquinolin-1-one]	6 nM
CCOCCNC(=O)C(C)(C)c1ccc(Nc2cc(-c3cccc(-n4ncc5cc(C(C)(C)C)cc(F)c5c4=O)c3CO)cn(C)c2=O)nc1 [Example I-29, 2-(6-{5-[3-(6-tert-Butyl-8-fluoro-1-oxo-1H-phthalazin-2-yl)-2-hydroxymethyl-phenyl]-1-methyl-2-oxo-1,2-dihydro-pyridin-3-ylamino}-pyridin-3-yl)-N-(2-ethoxy-ethyl)-isobutyramide]	30 nM
CC(C)n1ccc(Nc2cc(-c3cccc(-n4ncc5cc(C(C)(C)C)cc(F)c5c4=O)c3CO)cn(C)c2=O)nc1=O [Example I-38, 6-tert-Butyl-8-fluoro-2-{2-hydroxymethyl-3-[5-(1-isopropyl-2-oxo-1,2-dihydro-pyrimidin-4-ylamino)-1-methyl-6-oxo-1,6-dihydro-pyridin-3-yl]-phenyl}-2H-phthalazin-1-one]	67 nM
CC(C)NCc1ccc(Nc2cc(-c3cccc(-n4ncc5cc(C(C)(C)C)cc(F)c5c4=O)c3CO)cn(C)c2=O)nc1 [Example I-43, 6-tert-Butyl-8-fluoro-2-(2-hydroxymethyl-3-{5-[5-(isopropylamino-methyl)-pyridin-2-ylamino]-1-methyl-6-oxo-1,6-dihydro-pyridin-3-yl}-phenyl)-2H-phthalazin-1-one]	15 nM
